Among the data in publication PMC5514153, “Targeting PTPRZ inhibits stem cell-like properties and tumorigenicity in glioblastoma cells” (Scientific Reports, 2017) are IC50 values, retold here.

By IC50 is commonly meant the concentration needed to halve the response being measured. Low values mean greater potency in that assay, high ones weaker potency in that assay.

Assay type in all cases: biochemical
Details in all cases: 60-min preincubation

One assay addresses T1, hPTPRG (Homo sapiens, UniProt P23470).
T1 construct: The ICRs of PTPRG, PTPRS, and PTPRB and the catalytic domains of PTPN1 and PTPN6; GST (N); made in house; host or cells: Escherichia coli BL21
The experiment in a line: In vitro PTPase assay (DiFMUP), PTPRG. How it is done:
(§1) Figure 4 NAZ2329, an allosteric inhibitor of R5 RPTP subfamily members. (A) Structure of NAZ2329. (B) Effect of preincubation of NAZ2329 on its inhibitory activity against PTPRZ. Recombinant human PTPRZ1 enzyme (the whole intracellular region) was premixed with NAZ2329 for the indicated times and followed by addition of a fluorogenic DiFMUP (non-specific PTP substrate, 6,8-difluoro-4-methylumbiliferyl phosphate) to measure PTP inhibitory activity. (C) Time dependence. The PTPRZ1 enzyme was added to the inhibitor–substrate mixture, and the inhibitory activity was determined at each time point relative to the vehicle control. (D) Reversibility of inhibition. […] The mixture was then 20-fold diluted, and recovered PTP activity was expressed as the relative activity compared with the vehicle-treated enzyme. […] PTPRZ1 enzymes were preincubated with NAZ2329 for 60 min, and the PTP activity was measured using DiFMUP. […]
(§2) Recombinant proteins corresponding to the entire intracellular regions (ICRs) of PTPRZ1, PTPRA, and PTPRM were expressed using a baculovirus-silkworm expression system, and purified as described. The ICRs of PTPRG, PTPRS, and PTPRB and the catalytic domains of PTPN1 and PTPN6 were expressed as glutathione-S-transferase (GST) fusion proteins from each pGEX plasmid in Escherichia coli strain BL21 (ref. [6]). […]

Another assay has as its target T2, mPTPRB (Mus musculus, UniProt B2RU80).
T2 construct: The ICRs of PTPRG, PTPRS, and PTPRB and the catalytic domains of PTPN1 and PTPN6; GST (N); made in house; host or cells: Escherichia coli BL21
The experiment in a line: In vitro PTPase assay (DiFMUP), PTPRB. How it is done: as §1, §2

The target of another assay is T3, hPTPN1 (Homo sapiens, UniProt P18031).
T3 construct: the catalytic domains of PTPN1 and PTPN6 were expressed as glutathione-S-transferase (GST) fusion proteins; GST (N); made in house; host or cells: Escherichia coli BL21
T3 sequence (P18031 3-277 limits assumed): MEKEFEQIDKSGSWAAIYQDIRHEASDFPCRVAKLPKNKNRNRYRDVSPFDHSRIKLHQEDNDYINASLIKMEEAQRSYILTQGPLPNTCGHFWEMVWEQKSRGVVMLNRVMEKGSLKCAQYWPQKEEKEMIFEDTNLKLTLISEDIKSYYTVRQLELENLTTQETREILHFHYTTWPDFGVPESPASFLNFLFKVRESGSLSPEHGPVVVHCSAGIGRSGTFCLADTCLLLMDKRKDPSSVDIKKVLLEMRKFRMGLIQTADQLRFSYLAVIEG
The assay can be described thus: In vitro PTPase assay (DiFMUP), PTPN1. The method, then:
as §1, §2

T1 sequence (P23470 763-1445 limits assumed): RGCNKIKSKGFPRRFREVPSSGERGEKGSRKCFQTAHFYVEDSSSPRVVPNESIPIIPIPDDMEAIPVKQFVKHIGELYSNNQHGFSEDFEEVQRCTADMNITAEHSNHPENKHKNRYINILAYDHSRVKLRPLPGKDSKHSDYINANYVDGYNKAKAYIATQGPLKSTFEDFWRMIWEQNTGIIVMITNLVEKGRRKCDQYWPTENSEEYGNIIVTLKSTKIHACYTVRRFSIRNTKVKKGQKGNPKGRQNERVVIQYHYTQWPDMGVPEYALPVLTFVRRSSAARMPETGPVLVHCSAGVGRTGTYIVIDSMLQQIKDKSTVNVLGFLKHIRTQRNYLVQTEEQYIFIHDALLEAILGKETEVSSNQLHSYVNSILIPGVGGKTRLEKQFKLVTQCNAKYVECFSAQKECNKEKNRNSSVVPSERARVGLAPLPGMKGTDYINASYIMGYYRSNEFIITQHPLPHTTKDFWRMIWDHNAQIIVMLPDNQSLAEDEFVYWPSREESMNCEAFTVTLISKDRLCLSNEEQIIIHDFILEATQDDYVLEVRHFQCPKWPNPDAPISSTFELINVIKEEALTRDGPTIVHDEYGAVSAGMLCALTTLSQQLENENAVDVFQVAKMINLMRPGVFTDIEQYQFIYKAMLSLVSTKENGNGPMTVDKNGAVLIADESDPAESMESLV
T2 sequence (B2RU80 1644-1997 limits assumed): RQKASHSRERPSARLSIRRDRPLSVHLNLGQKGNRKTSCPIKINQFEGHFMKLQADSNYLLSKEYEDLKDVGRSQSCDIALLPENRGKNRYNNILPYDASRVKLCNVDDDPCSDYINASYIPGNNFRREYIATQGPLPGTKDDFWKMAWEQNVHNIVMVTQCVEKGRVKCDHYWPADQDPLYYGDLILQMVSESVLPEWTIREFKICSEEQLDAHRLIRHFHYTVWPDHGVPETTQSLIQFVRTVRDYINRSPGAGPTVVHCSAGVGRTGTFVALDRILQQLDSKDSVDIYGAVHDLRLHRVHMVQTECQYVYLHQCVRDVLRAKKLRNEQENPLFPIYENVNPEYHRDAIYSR

With `CCOc1ccc(C(F)(F)F)cc1CSc1ccsc1C(=O)NS(=O)(=O)c1ccccc1` [NAZ2329], the half-inhibitory concentration (IC50) at hPTPRG came out at 4.8 µM; against mPTPRB, 35.4 µM; on hPTPN1 it was 14.5 µM.
